Test in all cases: relative viability (nuclei count vs DMSO), 5 days (fraction); higher = more cells survive
Compound in experiment [1]: C1/C(=C\C2=CC=CS2)/C(=O)/C(=C/C3=CC=CS3)/C1 + Cc1nc(Nc2ncc(C(=O)Nc3c(C)cccc3Cl)s2)cc(N2CCN(CCO)CC2)n1 [Dasatinib] (partner 0.075 µM)
In outline:
(§1)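 Lung cancer cell lines in 1536-well plates were dosed by pin tool the day after seeding, either with one drug alone or with a fixed anchor-drug dose plus five library-drug doses (not always all listed) in √10 steps. After 5 days, cells were fixed and their nuclei stained in one step (final 0.05% Triton X-100, 1% formaldehyde, 1 ug/ml Hoechst), then counted on 4× images. Relative viability is the nuclei count in treated wells divided by that in vehicle wells. Values are medians of duplicate plates.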

Compound in the experiment “TPCA-1 + Navitoclax”: C1=CC(=CC=C1C2=CC(=C(S2)NC(=O)N)C(=O)N)F [TPCA-1] + CC1(C)CCC(c2ccc(Cl)cc2)=C(CN2CCN(c3ccc(C(=O)NS(=O)(=O)c4ccc(N[C@H](CCN5CCOCC5)CSc5ccccc5)c(S(=O)(=O)C(F)(F)F)c4)cc3)CC2)C1 [Navitoclax] (partner 0.5 µM)
In outline:
as §1

Compound in the experiment “TPCA-1 + Palbociclib”: C1=CC(=CC=C1C2=CC(=C(S2)NC(=O)N)C(=O)N)F [TPCA-1] + CC(=O)c1c(C)c2cnc(Nc3ccc(N4CCNCC4)cn3)nc2n(C2CCCC2)c1=O [Palbociclib] (partner 0.5 µM)
In outline: as §1

Compound in the experiment “Lestaurtinib + AZD7762”: C[C@]12O[C@H](C[C@]1(O)CO)n1c3ccccc3c3c4c(c5c6ccccc6n2c5c31)CNC4=O [Lestaurtinib] + NC(=O)Nc1cc(-c2cccc(F)c2)sc1C(=O)N[C@H]1CCCNC1 [AZD7762] (partner 0.2 µM)
In short, it runs like this: as §1

This is an account of results in the supplement of paper PMC10307832.

As to NCI-H2405, the relative viability in experiment [1] (first compound 0.2 µM) came out at 0.223; in experiment [1] (first compound 0.6325 µM), 0.212; in experiment [1] (first compound 2 µM), 0.224; in experiment [1] (first compound 6.325 µM), 0.211; in experiment [1] (first compound 20 µM), 0.221; in the experiment with TPCA-1 + Navitoclax (first compound 0.04 µM), 0.971. Also, the relative viability with TPCA-1 + Navitoclax (first compound 0.1265 µM) was determined as 0.691; with TPCA-1 + Navitoclax (first compound 0.4 µM) it was 0.964; with TPCA-1 + Navitoclax (first compound 4 µM), 0.714; with TPCA-1 + Palbociclib (first compound 0.04 µM) it was 0.565; in the experiment with TPCA-1 + Palbociclib (first compound 0.1265 µM) it was 0.507; with TPCA-1 + Palbociclib (first compound 0.4 µM), 0.525. Also, the relative viability turned out to be 0.446 with TPCA-1 + Palbociclib (first compound 1.265 µM); 0.478 with TPCA-1 + Palbociclib (first compound 4 µM); 0.746 in the experiment with Lestaurtinib + AZD7762 (first compound 0.005 µM); 0.885 with Lestaurtinib + AZD7762 (first compound 0.01581 µM); 0.492 with Lestaurtinib + AZD7762 (first compound 0.05 µM); 0.662 in the experiment with Lestaurtinib + AZD7762 (first compound 0.1581 µM). Moreover, the relative viability with Lestaurtinib + AZD7762 (first compound 0.5 µM) was 0.218.
NCI-H3122: the relative viability was 0.843 in experiment [1] (first compound 0.2 µM); 0.836 in experiment [1] (first compound 0.6325 µM); 1.05 in experiment [1] (first compound 2 µM); 0.827 in experiment [1] (first compound 6.325 µM); 0.82 in experiment [1] (first compound 20 µM); 0.995 with TPCA-1 + Navitoclax (first compound 0.04 µM). Moreover, the relative viability with TPCA-1 + Navitoclax (first compound 0.1265 µM) is 1.01; in the experiment with TPCA-1 + Navitoclax (first compound 0.4 µM), 1.04; with TPCA-1 + Navitoclax (first compound 1.265 µM) it was 1.02; in the experiment with TPCA-1 + Navitoclax (first compound 4 µM), 1.01; in the experiment with TPCA-1 + Palbociclib (first compound 0.04 µM), 0.189; in the experiment with TPCA-1 + Palbociclib (first compound 0.1265 µM), 0.166. The relative viability in the experiment with TPCA-1 + Palbociclib (first compound 0.4 µM) was 0.185; in the experiment with TPCA-1 + Palbociclib (first compound 1.265 µM), 0.22; with TPCA-1 + Palbociclib (first compound 4 µM), 0.181; in the experiment with Lestaurtinib + AZD7762 (first compound 0.005 µM) it was 1.05; with Lestaurtinib + AZD7762 (first compound 0.01581 µM), 1.08; in the experiment with Lestaurtinib + AZD7762 (first compound 0.05 µM), 1.1. The relative viability in the experiment with Lestaurtinib + AZD7762 (first compound 0.1581 µM) stood at 1.32; with Lestaurtinib + AZD7762 (first compound 0.5 µM) it was 0.537.
Consider PC-3 [JPC-3], for which the relative viability in experiment [1] (first compound 0.2 µM) is 1.03; in experiment [1] (first compound 0.6325 µM), 0.981; in experiment [1] (first compound 2 µM), 1.04; in experiment [1] (first compound 6.325 µM), 0.856; in experiment [1] (first compound 20 µM), 0.948; with TPCA-1 + Navitoclax (first compound 0.04 µM) it was 0.839. Also, the relative viability with TPCA-1 + Navitoclax (first compound 0.1265 µM) came out at 0.807; in the experiment with TPCA-1 + Navitoclax (first compound 0.4 µM), 0.802; in the experiment with TPCA-1 + Navitoclax (first compound 1.265 µM) it was 0.677; in the experiment with TPCA-1 + Navitoclax (first compound 4 µM), 0.719; with TPCA-1 + Palbociclib (first compound 0.04 µM), 0.516; with TPCA-1 + Palbociclib (first compound 0.1265 µM), 0.538. Besides, the relative viability with TPCA-1 + Palbociclib (first compound 0.4 µM) is 0.514; with TPCA-1 + Palbociclib (first compound 1.265 µM), 0.537; with TPCA-1 + Palbociclib (first compound 4 µM) it was 0.285; with Lestaurtinib + AZD7762 (first compound 0.005 µM), 0.759; with Lestaurtinib + AZD7762 (first compound 0.01581 µM) it was 1.04; in the experiment with Lestaurtinib + AZD7762 (first compound 0.05 µM) it was 0.688. The figures for the relative viability with Lestaurtinib + AZD7762 (first compound 0.1581 µM) and with Lestaurtinib + AZD7762 (first compound 0.5 µM) were 0.586 and 0.485, respectively.
As to PC-14, the relative viability stood at 0.32 in experiment [1] (first compound 0.2 µM); 0.264 in experiment [1] (first compound 0.6325 µM); 0.285 in experiment [1] (first compound 2 µM); 0.241 in experiment [1] (first compound 6.325 µM); 0.222 in experiment [1] (first compound 20 µM); 1.03 with TPCA-1 + Navitoclax (first compound 0.04 µM). Also, the relative viability in the experiment with TPCA-1 + Navitoclax (first compound 0.1265 µM) was 0.876; with TPCA-1 + Navitoclax (first compound 0.4 µM), 1.01; in the experiment with TPCA-1 + Navitoclax (first compound 1.265 µM) it was 1.09; with TPCA-1 + Navitoclax (first compound 4 µM), 0.913; in the experiment with TPCA-1 + Palbociclib (first compound 0.04 µM), 0.502; with TPCA-1 + Palbociclib (first compound 0.1265 µM), 0.57. Besides, the relative viability with TPCA-1 + Palbociclib (first compound 0.4 µM) came out at 0.557; in the experiment with TPCA-1 + Palbociclib (first compound 1.265 µM), 0.518; with TPCA-1 + Palbociclib (first compound 4 µM), 0.4; in the experiment with Lestaurtinib + AZD7762 (first compound 0.005 µM), 0.336; with Lestaurtinib + AZD7762 (first compound 0.01581 µM), 0.57; with Lestaurtinib + AZD7762 (first compound 0.05 µM), 0.362. Moreover, the values for the relative viability in the experiment with Lestaurtinib + AZD7762 (first compound 0.1581 µM) and with Lestaurtinib + AZD7762 (first compound 0.5 µM) were 0.248 and 0.146, respectively.
RERF-LC-KJ: the relative viability came out at 0.858 in experiment [1] (first compound 0.2 µM); 0.798 in experiment [1] (first compound 0.6325 µM); 0.776 in experiment [1] (first compound 2 µM); 0.682 in experiment [1] (first compound 6.325 µM); 0.656 in experiment [1] (first compound 20 µM); 0.967 with TPCA-1 + Navitoclax (first compound 0.04 µM). Also, the relative viability turned out to be 0.883 with TPCA-1 + Navitoclax (first compound 0.1265 µM); 1.06 in the experiment with TPCA-1 + Navitoclax (first compound 0.4 µM); 0.866 with TPCA-1 + Navitoclax (first compound 1.265 µM); 0.766 in the experiment with TPCA-1 + Navitoclax (first compound 4 µM); 1.12 with TPCA-1 + Palbociclib (first compound 0.04 µM); 1.04 with TPCA-1 + Palbociclib (first compound 0.1265 µM). The relative viability worked out at 1.04 with TPCA-1 + Palbociclib (first compound 0.4 µM); 1.03 with TPCA-1 + Palbociclib (first compound 1.265 µM); 0.892 with TPCA-1 + Palbociclib (first compound 4 µM); 1.1 in the experiment with Lestaurtinib + AZD7762 (first compound 0.005 µM); 1.16 with Lestaurtinib + AZD7762 (first compound 0.01581 µM); 0.729 with Lestaurtinib + AZD7762 (first compound 0.05 µM). Moreover, the relative viability in the experiment with Lestaurtinib + AZD7762 (first compound 0.1581 µM) worked out at 0.984; with Lestaurtinib + AZD7762 (first compound 0.5 µM) it was 0.61.
